Earlier results as cited in patent US8071785B2, “Synthesis and evaluation of 18F-labelled-alkyl-1-[(1R)-1-phenylethyl]-1H-imidazole-5-carboxylate as a tracer for the quantification of β-11-hydroxylase enzyme in the adrenal glands” (priority 2006, dated 2011).

How the values were obtained:
[1] = system: lesions of adrenocortical origin; details: clinical findings
[2] = system: steroid 110-hydroxylation
[3] = human adrenocortical tissue slices

Q: Which “uptake in lesions of adrenocortical origin, including adenomas” value [1] does the source give for CC(c1ccccc1)n1cncc1C(=O)O[11CH3] (centres unmarked) [[O-methyl-^11C]metomidate] here?
A: The value was “high uptake”.

Q: And the “uptake in lesions of non-adrenocortical origin” value [1]?
A: The value was “very low uptake”.

Q: Which results are given for CCOC(=O)c1cncn1[C@H](C)c1ccccc1 [etomidate]?
A: conversion of 11-deoxycorticosterone (DOC) to corticosterone and aldosterone [2, 3]: block the conversion; conversion of 11-deoxycortisol to cortisol [2, 3]: block the conversion

Q: With COC(=O)c1cncn1[C@H](C)c1ccccc1 [metomidate, Methyl 1-[(1R)-1-phenylethyl]-1H-imidazole-5-carboxylate] as the compound, how does the “inhibition of steroid 110-hydroxylation” value ([2]; relative to etomidate) read?
A: Its value is “equally potent inhibitor”.
